Legend:
[1] = logp (HCOOH), chemicophysical data
Avena fatua [2] = experiment: Pre-emergence herbicidal effect; format: in vivo; settings: Dosage 320 g/ha, visual scoring after 3 weeks vs untreated controls, 100% = plants have died
Summary of the method: (§1)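 Seeds sown in sandy loam and covered with soil; compound (WP or EC formulation) sprayed onto soil surface as aqueous suspension/emulsion at 600 to 800 l/ha water with 0.2% wetting agent, dose in g/ha. Greenhouse; visual damage scored after 3 weeks versus untreated controls (0% = control, 100% = dead).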

Amaranthus retroflexus [3] = experiment: Pre-emergence herbicidal effect; format: in vivo; settings: Dosage 320 g/ha, visual scoring after 3 weeks vs untreated controls, 100% = plants have died
Summary of the method: as §1

Setaria viridis [4] = experiment: Pre-emergence herbicidal effect; format: in vivo; settings: Dosage 320 g/ha, visual scoring after 3 weeks vs untreated controls, 100% = plants have died
Summary of the method: as §1

Veronica persica [5] = experiment: Pre-emergence herbicidal effect; format: in vivo; settings: Dosage 320 g/ha, visual scoring after 3 weeks vs untreated controls, 100% = plants have died
Summary of the method: as §1

Stellaria media [6] = experiment: Pre-emergence herbicidal effect; format: in vivo; settings: Dosage 320 g/ha, visual scoring after 3 weeks vs untreated controls, 100% = plants have died
Summary of the method: as §1

Polygonum convolvulus [7] = experiment: Pre-emergence herbicidal effect; format: in vivo; settings: Dosage 320 g/ha, visual scoring after 3 weeks vs untreated controls, 100% = plants have died
Summary of the method: as §1

Matricaria inodora [8] = experiment: Pre-emergence herbicidal effect; format: in vivo; settings: Dosage 320 g/ha, visual scoring after 3 weeks vs untreated controls, 100% = plants have died
Summary of the method: as §1

Echinochloa crus-galli [9] = experiment: Pre-emergence herbicidal effect; format: in vivo; settings: Dosage 320 g/ha, visual scoring after 3 weeks vs untreated controls, 100% = plants have died
Summary of the method: as §1

Lolium multiflorum [10] = experiment: Pre-emergence herbicidal effect; format: in vivo; settings: Dosage 320 g/ha, visual scoring after 3 weeks vs untreated controls, 100% = plants have died
Summary of the method: as §1

Alopecurus myosuroides [11] = experiment: Pre-emergence herbicidal effect; format: in vivo; settings: Dosage 320 g/ha, visual scoring after 3 weeks vs untreated controls, 100% = plants have died
Summary of the method: as §1

Viola tricolor [12] = experiment: Pre-emergence herbicidal effect; format: in vivo; settings: Dosage 320 g/ha, visual scoring after 3 weeks vs untreated controls, 100% = plants have died
Summary of the method: as §1

Abutilon theophrasti [13] = experiment: Pre-emergence herbicidal effect; format: in vivo; settings: Dosage 320 g/ha, visual scoring after 3 weeks vs untreated controls, 100% = plants have died
Summary of the method: as §1

Cyperus esculentus = experiment: Pre-emergence herbicidal effect; format: in vivo; settings: Dosage 320 g/ha, visual scoring after 3 weeks vs untreated controls, 100% = plants have died
Summary of the method: as §1

PHBPU = experiment: Post-emergence herbicidal effect; format: in vivo; settings: Dosage 320 g/ha, one-leaf stage, visual scoring after ca. 3 weeks vs untreated controls, 100% = plants have died
Summary of the method: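 Effect is rated visually as percent versus untreated plants (0% = like controls, 100% = plants died) about 3 weeks post-treatment. Plants at the one-leaf stage, 2 to 3 weeks from sowing in sandy loam, received spray of wettable powder or emulsion concentrate in 600 to 800 l/ha water plus 0.2% wetting agent, dosed in g/ha.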

Avena fatua [14] = experiment: Post-emergence herbicidal effect; format: in vivo; settings: Dosage 320 g/ha, one-leaf stage, visual scoring after ca. 3 weeks vs untreated controls, 100% = plants have died
Summary of the method: (§2)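 Herbicidal effect scored visually at ca. 3 weeks as % of untreated control, 100% meaning plants died. Treatment: spray of aqueous WP or EC preparations, dosed in g/ha, water rate 600 to 800 l/ha with 0.2% wetting agent, onto one-leaf-stage plants raised 2-3 weeks in sandy loam.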

Amaranthus retroflexus [15] = experiment: Post-emergence herbicidal effect; format: in vivo; settings: Dosage 320 g/ha, one-leaf stage, visual scoring after ca. 3 weeks vs untreated controls, 100% = plants have died
Summary of the method: as §2

Setaria viridis [16] = experiment: Post-emergence herbicidal effect; format: in vivo; settings: Dosage 320 g/ha, one-leaf stage, visual scoring after ca. 3 weeks vs untreated controls, 100% = plants have died
Summary of the method: as §2

Veronica persica [17] = experiment: Post-emergence herbicidal effect; format: in vivo; settings: Dosage 320 g/ha, one-leaf stage, visual scoring after ca. 3 weeks vs untreated controls, 100% = plants have died
Summary of the method: as §2

Stellaria media [18] = experiment: Post-emergence herbicidal effect; format: in vivo; settings: Dosage 320 g/ha, one-leaf stage, visual scoring after ca. 3 weeks vs untreated controls, 100% = plants have died
Summary of the method: as §2

Polygonum convolvulus [19] = experiment: Post-emergence herbicidal effect; format: in vivo; settings: Dosage 320 g/ha, one-leaf stage, visual scoring after ca. 3 weeks vs untreated controls, 100% = plants have died
Summary of the method: as §2

Matricaria inodora [20] = experiment: Post-emergence herbicidal effect; format: in vivo; settings: Dosage 320 g/ha, one-leaf stage, visual scoring after ca. 3 weeks vs untreated controls, 100% = plants have died
Summary of the method: as §2

Echinochloa crus-galli [21] = experiment: Post-emergence herbicidal effect; format: in vivo; settings: Dosage 320 g/ha, one-leaf stage, visual scoring after ca. 3 weeks vs untreated controls, 100% = plants have died
Summary of the method: as §2

Lolium multiflorum [22] = experiment: Post-emergence herbicidal effect; format: in vivo; settings: Dosage 320 g/ha, one-leaf stage, visual scoring after ca. 3 weeks vs untreated controls, 100% = plants have died
Summary of the method: as §2

Alopecurus myosuroides [23] = experiment: Post-emergence herbicidal effect; format: in vivo; settings: Dosage 320 g/ha, one-leaf stage, visual scoring after ca. 3 weeks vs untreated controls, 100% = plants have died
Summary of the method: as §2

Viola tricolor [24] = experiment: Post-emergence herbicidal effect; format: in vivo; settings: Dosage 320 g/ha, one-leaf stage, visual scoring after ca. 3 weeks vs untreated controls, 100% = plants have died
Summary of the method: as §2

Abutilon theophrasti [25] = experiment: Post-emergence herbicidal effect; format: in vivo; settings: Dosage 320 g/ha, one-leaf stage, visual scoring after ca. 3 weeks vs untreated controls, 100% = plants have died
Summary of the method: as §2

Structure (SMILES) | Pre-emergence herbicidal effect AVEFA (Avena fatua [2]) | Pre-emergence herbicidal effect AMARE (Amaranthus retroflexus [3]) | Pre-emergence herbicidal effect SETVI (Setaria viridis [4]) | Pre-emergence herbicidal effect VERPE (Veronica persica [5]) | Pre-emergence herbicidal effect STEME (Stellaria media [6]) | Pre-emergence herbicidal effect MATIN (Matricaria inodora [8]) | Pre-emergence herbicidal effect ECHCG (Echinochloa crus-galli [9]) | Pre-emergence herbicidal effect LOLMU (Lolium multiflorum [10]) | Pre-emergence herbicidal effect ALOMY (Alopecurus myosuroides [11]) | Pre-emergence herbicidal effect ABUTH (Abutilon theophrasti [13]) | Pre-emergence herbicidal effect CYPES (Cyperus esculentus) | logp (HCOOH) [1] | Post-emergence herbicidal effect PHBPU (PHBPU) | Post-emergence herbicidal effect AVEFA (Avena fatua [14]) | Post-emergence herbicidal effect AMARE (Amaranthus retroflexus [15]) | Post-emergence herbicidal effect SETVI (Setaria viridis [16]) | Post-emergence herbicidal effect VERPE (Veronica persica [17]) | Post-emergence herbicidal effect STEME (Stellaria media [18]) | Post-emergence herbicidal effect POLCO (Polygonum convolvulus [19]) | Post-emergence herbicidal effect MATIN (Matricaria inodora [20]) | other results
C#Cc1cnc(N[C@H]2c3cc(C)ccc3C[C@@H]2C)nc1N [Example 1.119, N2-[(1R,2S)-2,6-Dimethyl-2,3-dihydro-1H-inden-1-yl]-5-ethynylpyrimidine-2,4-diamine] |  |  |  |  |  |  |  |  |  |  |  |  |  |  |  |  |  |  |  |  | melting point: 99 °C; chromatographic logP ([1]; HCOOH (formic acid)): 1.43
Cc1ccc2c(c1)[C@H](Nc1ncc(C#N)c(N)n1)[C@@H](C)C2 [Example 1.35] | 100% | 100% | 100% | 100% | 100% | 100% | 100% | 100% | 100% | 100% | 100% | wax-like; logp (HCOOH): 2.35; 1H-NMR (CDCl3, 400 MHZ, δ in ppm): 1.25 (d, 3H, CH3); | 90% | 95% | 93% | 95% | 95% | 95% | 90% | 85% | Pre-emergence herbicidal effect POLCO (Polygonum convolvulus [7]): 100%; Pre-emergence herbicidal effect VIOTR (Viola tricolor [12]): 100%; Post-emergence herbicidal effect ECHCG (Echinochloa crus-galli [21]): 100%; Post-emergence herbicidal effect LOLMU (Lolium multiflorum [22]): 90%; Post-emergence herbicidal effect ALOMY (Alopecurus myosuroides [23]): 100%; Post-emergence herbicidal effect VIOTR (Viola tricolor [24]): 90%; Post-emergence herbicidal effect ABUTH (Abutilon theophrasti [25]): 95%
Cc1ccc2c(c1)[C@H](Nc1nc(C)c(C#N)c(N)n1)[C@@H](C)C2 [Example 1.17] | 90% | 100% | 100% | 100% | 100% | 100% | 100% | 100% | 100% | 100% | 90% | solid, m.p.: 166.4° C.; logp (HCOOH): 2.40; 1H-NMR (CDCl3, 400 MHZ, δ in ppm): 1.25 | 90% | 80% | 97% | 90% | 87% | 97% | 80% | 85% | Post-emergence herbicidal effect ECHCG (Echinochloa crus-galli [21]): 93%; Post-emergence herbicidal effect LOLMU (Lolium multiflorum [22]): 93%; Post-emergence herbicidal effect ALOMY (Alopecurus myosuroides [23]): 90%; Post-emergence herbicidal effect VIOTR (Viola tricolor [24]): 90%; Post-emergence herbicidal effect ABUTH (Abutilon theophrasti [25]): 87%
